For this experiment, the system named is HIF-1 dependent transcription. In words: 5×HRE luciferase reporter assay of hypoxia (CoCl2)-induced transcription in MDAMB-231 cells. Type of experiment: cell-based. The note with it: CoCl2 along with thalidomide 10 μM. The text has this: FIGS. 5A-5E. FIG. 5A. Schematic map of luciferase reporter used; HRE: hypoxia responsive element. FIG. 5B. Assay of hypoxia-induced luciferase activity in the presence of each indicated siRNA transfection. **p<0.001, * p<0.01 versus control/CoCl2 one-way ANOVA, Bonferroni post test. FIG. 5C. Western blot showing the efficiency of knockdown for each βarr isoform. FIG. 5D. Assay of hypoxia induced luciferase reporter activity in Mouse Embryonic Fibroblasts (MEFs) that are null for both βarr1 and 2 under control and βarr1 replete conditions. *** p<0.001, between the two cobalt treated samples, Bonferroni post test, one-way ANOVA, n=3. FIG. 5E. Western blot of lysates showing expression of transfected βarr1.
FIGS. 7A-7D. FIG. 7A. […] FIG. 7B. […] FIG. 7C. […] FIG. 7D.
To test if the above β-arrestin1-HIF-1α interaction has functional consequences, an analysis was made of the effect of β-arrestin1 expression on HIF-1-mediated transcription during hypoxia. One of the most characterized HIF-regulated genes is the potent endothelial mitogen, VEGF-A, which regulates endothelial cell proliferation and blood vessel formation in both normal and cancerous tissues (Liu et al, Circ. Res. 77:638-643 (1995)). The VEGF-A gene contains a HRE in its 5′ UTR (untranslated region) and hypoxia induces a rapid and sustained increase in VEGF-A mRNA levels. […]
On the technique in general: Reporter assays use an easily measured gene product as a stand-in for the process of interest.

As to `O=C1CCC(N2C(=O)c3ccccc3C2=O)C(=O)N1` (stereo not shown) [thalidomide], the “HIF-1 dependent transcriptional response (5×HRE luciferase reporter activity)” value was “complete inhibition”.
